Experimental data reported in US20160339022A1, “TREATMENT OF NEUROBLASTOMA WITH HISTONE DEACETYLASE INHIBITORS” (Acetylon Pharmaceuticals Inc., priority 2015, published 2016).

Key:
[1] = test system: neuroblastoma cells; conditions: MTS assay, FIGS. 27 and 28
Protocol: Viable cells were measured in an MTS assay and the combination index (CI) was calculated using the Chou-Talaay method.

[2] = test system: SK-N-BE(2) cells; experiment: Cell viability (Promega CellTiter Glo assay); format: cell-based
Protocol: Cells were cultured for 48 hours at the indicated concentration of drug, and then cell viability was measured by Promega CellTiter Glo assay and caspase activity was measured by Promega Caspase3/7 Glo assay. […] Anti-tumor activity is evident at 3 μM of treatment.

[3] = test system: SK-N-BE(2) cells; experiment: Differentiation Index Score based on a gene signature; format: cell-based; conditions: 48 hours, FIG. 1
Protocol: A subset of the fingerprint genes are assessed for each treatment group, and a score is assigned to each gene based on the degree of expression and weighted with a (+) or (−) sign based on if it increased or decreased as predicted. The scores are summed to generate a single Index value for each treatment group, set to ATRA signal and compared. It is observed that HDAC1/2i induce gene expression consistent with differentiation and that in combination with ATRA, the differentiation effect is enhanced.
The combination of the listed compounds with retinoic acid results in a greater differentation index score, illustrating enhanced differentiation in the combination setting.

[4] = test system: AKT and c-RAF; experiment: Levels of AKT and c-RAF; format: cell-based; conditions: SK-N-BE2 cells; 3 days in culture
Protocol: The levels of AKT and c-RAF were assessed following treatment (SK-N-BE2 cells; 3 days in culture) with DMSO (control), Compound B alone, ATRA alone, and Compound B in combination with ATRA. Activated AKT is increased by ATRA and reduced in the combination setting with Compound B. Compound B as a single agent, and in combination with ATRA, decreases cRAF phosphorylation at residue Ser259.

[5] = target: HDAC2 (Homo sapiens, UniProt Q92769); experiment: HDAC2 activity in live cells; format: cell-based; conditions: FIG. 1C
[6] = test system: SK-N-BE2 cells; experiment: Levels of proteins related to cell-cycle progression; format: cell-based; conditions: 3 days in culture
Protocol: The levels of proteins related to cell-cycle progression were assessed following treatment (SK-N-BE2 cells; 3 days in culture) with DMSO (control), Compound B alone, ATRA alone, and Compound B in combination with ATRA. p21 is increased by ATRA and enhanced by Compound B. Cyclin D1 is decreased in the combination setting relative to ATRA as a single agent. CDK2 and CDK4 are decreased in the combination setting with Compound B and ATRA.

[7] = test system: neuroblastoma cells; experiment: Long term growth assay (15, 20, 25 days, Crystal Violet); format: cell-based
Protocol: Cells were cultured for 15, 20 or 25 days with the indicated treatments. Cells were imaged on an inverted microscope at days 15 and 20. On day 25, the cells were stained with Crystal Violet dye and imaged by cell phone camera Importantly, the combination of ATRA and Compound B suppressed the growth of ATRA-resistant colonies.
Cells were cultured for 15, 20 or 25 days with the indicated treatments. Cells were imaged on an inverted microscope at days 15 and 20. On day 25, the cells were stained with Crystal Violet dye and imaged.
Cells were cultured for 15, 20 or 25 days with the indicated treatments. Cells were imaged on an inverted microscope at days 15 and 20. On day 25, the cells were stained with Crystal Violet dye and imaged. It was observed that the combination activity is mediated by HDAC1/2i.
Neuroblastoma cells were treated with Compound B or the HDAC3-selective inhibitor Compound C in a long term growth assay.

Sequence of HDAC2 (Q92769 whole entry): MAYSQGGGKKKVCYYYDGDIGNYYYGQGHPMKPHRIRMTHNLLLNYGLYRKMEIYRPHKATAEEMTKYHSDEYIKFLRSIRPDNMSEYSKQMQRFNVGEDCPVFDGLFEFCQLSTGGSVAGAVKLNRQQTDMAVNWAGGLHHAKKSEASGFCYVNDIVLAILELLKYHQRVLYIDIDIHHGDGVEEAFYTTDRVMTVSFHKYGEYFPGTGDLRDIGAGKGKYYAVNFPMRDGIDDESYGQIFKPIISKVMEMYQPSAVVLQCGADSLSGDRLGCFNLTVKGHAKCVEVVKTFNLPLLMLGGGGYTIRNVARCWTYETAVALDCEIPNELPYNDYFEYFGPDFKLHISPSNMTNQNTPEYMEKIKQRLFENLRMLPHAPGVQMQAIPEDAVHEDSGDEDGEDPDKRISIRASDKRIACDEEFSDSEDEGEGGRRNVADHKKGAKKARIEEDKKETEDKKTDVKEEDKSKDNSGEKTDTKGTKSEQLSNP

Nc1ccc(-c2cccs2)cc1NC(=O)c1ccc2c(c1)cc(C1CC1)n2CCN1CCOCC1 [Compound B, N-(2-amino-5-(thiophen-2-yl)phenyl)-2-cyclopropyl-1-(2-morpholinoethyl)-1H-indole-5-carboxamide]
cytotoxic effect on neuroblastoma cells as a single agent [1]: has a cytotoxic effect
cell death ([2]; 1 μM, 48 hours): Minimal
anti-tumor activity ([2]; 3 μM, 48 hours): evident
concentrations causing tumor cell death ([2]; FIG. 2A): ≥ 2 µM
Differentiation Index Score (gene signature) [3]: induces gene expression changes consistent with differentiation
cRAF phosphorylation at residue Ser259 [4]: decreases
potency of inhibition of HDAC2 activity in live cells [5]: 500 to 3000 nM
p21 level [6]: enhanced
neuroblastoma cell growth in long term growth assay ([7]; 1 μM of exposure, single agent, FIG. 11): reduced neuroblastoma cell growth
growth of ATRA-resistant colonies ([7]; combination with ATRA, 15-25 days): strongly suppressed
